We go through eight molecules from publication PMC12677843, “Multidisciplinary Preclinical Investigations on Ferrocenyl, Ruthenocenyl, and Benzyl Derivatives of Niridazole as New Drug Candidates against Schistosomiasis” (Chemmedchem, 2025).

In data set [1] the test system is adult S. mansoni. The data set can be described thus: In vitro drug sensitivity assay on adult S. mansoni (microscopic viability scoring). The class given is cell-based, Schistosoma mansoni. The settings on record: for mean drug effect at 10 µM on adult S. mansoni, 24 h / mean drug effect at 10 µM on adult S. mansoni, 48 h / mean drug effect at 10 µM on adult S. mansoni, 72 h: in percentage of DMSO control; for EC50: 37 °C, 5% CO2; for Fold activity of niridazole: potency on adult S. mansoni relative to niridazole, EC50 at 72 h; for drug effect at 50 µM on adult S. mansoni: 72 h incubation, normalized to DMSO control, active if ≥60%. The procedure:
Figure 3 In vitro activity at 50 µM of the 12 compounds on adult S. mansoni. Adult schistosomes were incubated in culture media for 72 h at 37 °C and 5% CO2 with either compound (50 µM) or a DMSO (0.5%) control. The viability of the worms was microscopically evaluated and scored (0—3, in 0.5 steps) every 24 h. Results are from two independent experiments, each performed in duplicate. Drug activities were normalized to the DMSO controls. Data represent mean ± SD in percentage of DMSO control. […]
In vitro evaluation on adult S. mansoni
After a week for acclimatization to the new environment with controlled conditions (temperature: 22 °C ± 2 °C, humidity: 50 % ± 10 %, 12:12 h light/dark photocycle), four-week-old female NMRI mice (Charles River, Sulzfeld, Germany) were subcutaneously infected with approximately 100 cercariae to establish the S. mansoni infection. In the S. mansoni infected mice the worms were allowed to develop for 7 weeks into the adult stage, before they were extracted from the mesenteric veins of the euthanized mice. The adult worms were placed into RPMI 1640 (Gibco, Waltham MA, USA) medium supplemented with 1 % penicillin/streptomycin mixture and 5 % iFCS at 37 °C and 5 % CO 2. The drug sensitivity assay was set up in a 24-well plate with two wells containing each two pairs of S. mansoni worms per compound and concentration.
The final volume per well was 2 mL, containing the culture medium and the corresponding amount of drug dissolved in DMSO. The maximum concentration tested was 50 µM, corresponding to 0.5 % DMSO, to which all the other wells were adapted […]
to, so that all test concentrations contained always the same amount of DMSO.
Additionally, 2 wells with negative controls containing only DMSO and the culture medium were included. After an incubation period of 72 h at 37 °C and 5 % CO 2, the worms were microscopically evaluated. The drug effect was determined 24, 48 and 72 h post-exposure based on the phenotype of the adult worms, using a viability scale ranging from three referring to viable, motile worms with no change in their tegument to zero standing for the death of the worms.
All described in vitro studies with mice involved, were conducted at the Swiss Tropical and Public Health Institute, first in Basel, later in Allschwil, and had the approval by the corresponding veterinary authorities of the Canton Basel-Stadt (permit no. 2070)

The subject of data set [2] is juvenile S. mansoni. The data set can be described thus: In vitro drug sensitivity assay on juvenile S. mansoni. The class given is cell-based, Schistosoma mansoni. The settings on record: 72 h incubation, 37 °C, 5% CO2. The procedure:
Juvenile worms were gained through cultivation of NTS as previously described. 10 In short, NTS were obtained as described above, then directly after the mechanical transformation process the newly transformed schistosomula were placed in a special culturing medium. The culture medium consists of Panserin 401, w: L-Glutamine, serum free all-round medium (Pan Biotech, Aidenbach, Germany) supplemented with 20 % human serum and 500 U/mL penicillin, […] streptomycin (LuBioScience, Switzerland). 96-well transparent polystyrene flat bottom plates were used for the in vitro growth procedure, with 40 to 60 NTS per well in 100 µL culture medium. The bordering wells of the plate were filled solely with medium to counteract evaporation and to keep the humidity as steady as possible. The plates were incubated for 21 days at 5 % CO2 and at 37 °C, with regular medium changes every 3 to 4 days. After the 21 days culturing period, the schistosomulae developed into juveniles. For the drug sensitivity assay, juvenile worms were incubated over 72 h (5 % CO 2 and 37 °C) with the test compound in the same medium, as used for the culturing process. In a 96-well plate, 250 µL medium containing the test compound and six juvenile worms, ideally of both sexes were placed in each well. All compounds were tested twice independently at 50, 10, 5 and 1 µM in duplicates. The viability of the worms was evaluated microscopically after 24, 48 and 72 h of continuous drug exposure using the same phenotypic screening method as described before. […]

For data set [3], the system named is S. mansoni newly transformed schistosomula (NTS). The data set can be described thus: In vitro evaluation on newly transformed schistosomula (NTS). The data set is classed as cell-based, Schistosoma mansoni. The settings on record: for EC50: 72 h incubation, 37 °C, 5% CO2; for drug effect at 50 µM on S. mansoni NTS: highest tested concentration 50 µM. The procedure: 2. Experimental section for biological experiments
Stock solutions of the test compounds
Stock solution of a concentration of 10 mM in pure DMSO (Sigma-Aldrich, Switzerland) were prepared of the 12 compounds, these stock solutions were used for all in vitro evaluations from activity tests in S. mansoni to the cytotoxic determinations in HUH7 hepatocyte-derived carcinoma cells, and in SH-SY5Y neuroblastoma cells.
The solutions were thoroughly vortexed and sonicated to enable a good dissolution of the compounds and homogenous stock solutions.
2.1 In vitro evaluations in S. mansoni
In vitro evaluation on newly transformed schistosomula (NTS)
To obtain newly transformed schistosomula (NTS) the lifecycle of S. mansoni (strain originates from West Africa, Liberia) is maintained at the Swiss Tropical and Public Health Institute (Swiss TPH). As previously described, cercariae are collected from infected Biomphalaria glabrata snails and then mechanically transformed into NTS. 8 After HBSS (Gibco, Waltham MA, USA) washing to get rid of the detached tails, the NTS were kept overnight (min. 12 h, max. 24 h) in culture medium at 37 °C and 5 % CO2 to complete their transformation process, before the drug sensitivity assay was started. The drug assays were performed in the same culture medium consisting of medium M199 (Gibco, Waltham MA, USA) supplemented with 5 % v/v inactivated fetal calf serum (iFCS; Bioconcept AG, Allschwil, Switzerland), 1% antibiotics mixture developed by Mäser et al., 9 and 1 % penicillin 10,000 U/mL, and streptomycin 10 mg/mL solution (Sigma-Aldrich, Buchs, Switzerland). The assay was performed in a 96-well plate, with 30−40 NTS per well in a final volume of 250 μL. NTS incubated in culture medium containing 0.5 % DMSO but no drug served as negative controls.
Microscopic evaluation was performed after 24, 48 and 72 h of incubation of the parasites at 37 °C and 5 % CO 2. Their overall viability was scored from 0 (death) to 3 (full viability) by a phenotypic screening method based on their motility, morphology, […]
and granularity. […]

Data set [4] in a line: Stability in DMSO-d6 monitored by 1H NMR. To be noted: room temperature, 0, 6, 24, 30 and 48 h. The class given is physicochemical. Here is the method:
Stability is a key factor that needs to be investigated in medicinal chemistry, particularly with metal complexes.^[ [44] ^] We randomly chose four niridazole derivatives that we dissolved in DMSO‐d 6 (A3, B1, C2, and D1). We then monitored by ^1H NMR spectroscopy any change in the spectra after 0, 6, 24, 30, and 48 h at room temperature. No shifted peaks or new peaks were found for all the tested compounds over 2 days, showing that they are stable in DMSO‐d 6. The NMR spectra of these studies can be found in the Supporting Information (Figure S32–S35).
Figure S31 DEPT spectrum of C2
1H NMR spectra for stability
Preparation of the control samples for 1H NMR analysis: Compounds B1, D1, A3 and
C2 were dissolved in DMSO- d6. Compound A2 was dissolved in DMSO- d6 with D2O
(4:1, v/v). NMR spectra were recorded in deuterated solvents on Bruker Avance-400
in the room temperature for 0, 6, 24, 30 and 48 hours or 0, 3, 6 and 24 hours. […]

Where [5] appears, read: 24 h drug exposure, read-out: EC50 on adult S. mansoni, 24 h.
[6] abbreviates: 48 h drug exposure, read-out: EC50 on adult S. mansoni, 48 h.
[7] abbreviates: 72 h drug exposure, read-out: EC50 on adult S. mansoni, 72 h.
Where [8] appears, read: Schistosoma mansoni, 72 h, 72 h drug exposure, read-out: EC50 on adult S. mansoni, 72 h.

Like-named read-outs stand apart in the source and are kept apart here.

As to `C=CC([c-]1cccc1)N1CCN(c2ncc([N+](=O)[O-])s2)C1=O.[Fe+2].c1cc[cH-]c1` (racemic) [Compound A5], the “mean drug effect at 10 µM on adult S. mansoni, 24 h” value (“mean drug effect at 10 µM … 24 h” for short) in data set [1] (24 h) is 36.19%. Further, the “mean drug effect at 10 µM on adult S. mansoni, 48 h” value (shortened to “mean drug effect at 10 µM … 48 h”) in data set [1] (48 h) is reported as 57.59%. Also, the EC50 in data set [1] (setting [5]) is greater than 50 µM; in data set [1] (setting [6]), 5.3 µM; in data set [1] (setting [7]), 1.5 µM; in data set [2], 12.2 µM; in data set [3], greater than 50 µM. Moreover, the “Fold activity of niridazole” value in data set [1] is reported as 3.8.

Consider `Nc1ncc([N+](=O)[O-])s1` [Compound 2], for which, in data set [1], the “drug effect at 50 µM on adult S. mansoni” value is given as “No drug effect”. The EC50 in data set [1] (setting [8]) and in data set [3] (Schistosoma mansoni) was greater than 50 µM each time. For the same molecule, the “drug effect at 50 µM on S. mansoni NTS” value in data set [3] is reported as “No drug effect”.

For the molecule `O=C1N(C[c-]2cccc2)CCN1c1ncc([N+](=O)[O-])s1.[Fe+2].c1cc[cH-]c1` [Compound A3], the “mean drug effect at 10 µM … 24 h” value in data set [1] (24 h) is on record as 30.75%. Also, in data set [1] (48 h), the “mean drug effect at 10 µM … 48 h” value is recorded as 44.28%. Also, the “mean drug effect at 10 µM on adult S. mansoni, 72 h” value (“mean drug effect at 10 µM … 72 h” below) in data set [1] (72 h) was determined as 66.09%. Besides, the “drug effect at 50 µM on adult S. mansoni” value in data set [1] was “less active than niridazole”. The EC50 is 50.5 µM in data set [1] (setting [5]); 9.7 µM in data set [1] (setting [6]); 3.5 µM in data set [1] (setting [7]); 5.7 µM in data set [2]; greater than 50 µM in data set [3]. Also, in data set [1], the “Fold activity of niridazole” value is listed as 1.6. Besides, the “stability in DMSO-d6 (1H NMR)” value in data set [4] is “stable”.

`O=C1N(CCCCCC[c-]2cccc2)CCN1c1ncc([N+](=O)[O-])s1.[Fe+2].c1cc[cH-]c1` [Compound A4]: the “drug effect at 50 µM on adult S. mansoni” value in data set [1] is “No drug effect”. Also, the EC50 in data set [1] (setting [7]) and in data set [3] was greater than 50 µM throughout. Further, in data set [3], the “drug effect at 50 µM on S. mansoni NTS” value is recorded as “No drug effect”.

Consider `O=C(Nc1ncc([N+](=O)[O-])s1)[c-]1cccc1.[Ru+2].c1cc[cH-]c1` [Compound B1], for which the “mean drug effect at 10 µM … 24 h” value in data set [1] (24 h) is recorded as 45.53%. Also, the “mean drug effect at 10 µM … 48 h” value in data set [1] (48 h) is recorded as 44.35%. Besides, the “mean drug effect at 10 µM … 72 h” value in data set [1] (72 h) was found to be 57.20%. Besides, the “drug effect at 50 µM on adult S. mansoni” value in data set [1] is given as “less active than niridazole”. The figures for the EC50 in data set [1] (setting [7]), in data set [2] and in data set [3] were 6.9 µM, greater than 50 µM and greater than 50 µM, respectively. Besides, in data set [4], the “stability in DMSO-d6 (1H NMR)” value was “stable”.

Take `O=C1N(C[c-]2cccc2)CCN1c1ncc([N+](=O)[O-])s1.[Ru+2].c1cc[cH-]c1` [Compound B2]: the “mean drug effect at 10 µM … 24 h” value in data set [1] (24 h) was determined as 31.28%. Moreover, in data set [1] (48 h), the “mean drug effect at 10 µM … 48 h” value is 44.99%. The “mean drug effect at 10 µM … 72 h” value in data set [1] (72 h) was 65.57%. In addition, in data set [1], the “drug effect at 50 µM on adult S. mansoni” value is given as “less active than niridazole”. Further, the EC50 in data set [1] (setting [5]) was 38.1 µM; in data set [1] (setting [7]), 3.2 µM; in data set [2], 8 µM; in data set [3], greater than 50 µM. The “Fold activity of niridazole” value in data set [1] stood at 1.8.

On to `O=C1N(Cc2ccccc2)CCN1c1ncc([N+](=O)[O-])s1` [Compound C2], for which, in data set [1], the “drug effect at 50 µM on adult S. mansoni” value is listed as “No drug effect”. In addition, the EC50 in data set [1] (setting [8]) and in data set [3] (Schistosoma mansoni) was greater than 50 µM each time. In addition, the “drug effect at 50 µM on S. mansoni NTS” value in data set [3] is given as “No drug effect”. Also, the “stability in DMSO-d6 (1H NMR)” value in data set [4] is “stable”.

Turning to `O=C(Nc1ncc([N+](=O)[O-])s1)C12CC3CC(CC(C3)C1)C2` [Compound D1], the “mean drug effect at 10 µM … 24 h” value in data set [1] (24 h) is 55.18%. Also, the “mean drug effect at 10 µM … 48 h” value in data set [1] (48 h) is 66.75%. Also, the “mean drug effect at 10 µM … 72 h” value in data set [1] (72 h) was determined as 65.76%. The EC50 in data set [1] (setting [5]) is 9.8 µM; in data set [1] (Schistosoma mansoni, 24 h, 24 h drug exposure, read-out: EC50 on adult S. mansoni, 24 h) it was less than 10 µM; in data set [1] (Schistosoma mansoni, 48 h, 48 h drug exposure, read-out: EC50 on adult S. mansoni, 48 h) it was 4.2 µM; in data set [1] (setting [8]) it was 3.7 µM; in data set [2] (Schistosoma mansoni), 29.2 µM; in data set [3] (Schistosoma mansoni), 7.9 µM. Further, the “Fold activity of niridazole” value in data set [1] came out at 1.5. Further, the “stability in DMSO-d6 (1H NMR)” value in data set [4] is on record as “stable”.

The EC50 is the concentration giving half of the maximal effect.
